Assay results from patent US20230210857A1, “RESPIRATORY STIMULANT PARENTERAL FORMULATIONS” (Enalare Therapeutics Inc., priority 2021, published 2023).

Experiments:
[1] = Drug substance stability (API in closed Type I glass vials); type: physicochemical
Experimental: Methodology: Approximately 100 mg of the API (Lot 009MSB058) were stored at each of 40° C. and 60° C. in closed Type I glass vials. Samples were analyzed for appearance and percent purity at T0 and after 1 week, 2 weeks and 4 weeks of storage.
Visually, there were no signs of degradation (i.e. discoloration etc.).

[2] = pKa and theoretical free base solubility; type: physicochemical
[3] = Three-phase pharmacokinetics (PK) study in minipigs, single IV and IM doses; conditions: male, Gottingen, minipig, in vivo; for AUC(0-inf): AUCINF; for AUC(0-t): AUClast; for half-life: T1/2
Experimental: The study consisted of conducting a bioequivalence (BE) study in minipigs. Two formulations of a Compound having Formula (I) (N-(4,6-Bis-n-propylamino-[1,3,5]triazin-2-yl)-O,N-dimethyl-hydroxylamine) were tested in the study as follows:
For IV administration, minipigs (n=3) received a single IV bolus (1-2 minutes) administration of the Compound having Formula (I) (N-(4,6-Bis-n-propylamino-[1,3,5]triazin-2-yl)-O,N-dimethyl-hydroxylamine) via VAP (vascular access port) at the jugular vein. For IM administration, minipigs (n=3) received a single IM administration of Compound having Formula (I) (N-(4,6-Bis-n-propylamino-[1,3,5]triazin-2-yl)-O,N-dimethyl-hydroxylamine) via the lateral neck muscle (behind the ear). The animals were dosed before noon on dosing days. The routes allowed for the determination of pharmacokinetics of Compound having Formula (I) (N-(4,6-Bis-n-propylamino-[1,3,5]triazin-2-yl)-O,N-dimethyl-hydroxylamine) from IV and IM administration.
A PK study was conducted in male Gottingen minipigs (n=3), which were administered in a single IV and subsequent IM doses using the dosing scheme outlined in Table 25. There was a minimum of 3 day washout period between dose events.
The mean dose for IV dose Group 1 was 4.79+/−0.012 mg/kg. The mean dose for IM dose Group 2 was 4.82+/−0.036 mg/kg. The mean dose for IM dose Group 3 was 4.79+/−0.033 mg/kg. All through groups nominal doses were 4.8 mg/kg. These does were based on the nominal concentrations of the Compound having Formula (I) (N-(4,6-Bis-n-propylamino-[1,3,5]triazin-2-yl)-O,N-dimethyl-hydroxylamine) in the dose formulations (purity, water, and salt content corrected).
For IV administration, minipigs (n=3) received a single IV bolus (1-2 minutes) administration of Compound having Formula (I) (N-(4,6-Bis-n-propylamino-[1,3,5]triazin-2-yl)-O,N-dimethyl-hydroxylamine) via a Vascular access port (VAP) in the jugular vein. For IM administration, minipigs (n=3) received a single IM administration of each IM formulation via the lateral neck muscle (behind the ear). For each dose event, blood samples were collected at 8 time points: 0.083, 0.167, 0.25, 0.5, 1, 2, 4 and 24 hours post dose. General observations were conducted twice-daily for any treatment-related effects/toxicity and/or tolerability. Table 26 includes the Plasma Concentration Descriptive Statistics of Compound having Formula (I) (N-(4,6-Bis-n-propylamino-[1,3,5]triazin-2-yl)-O,N-dimethyl-hydroxylamine). Table 27 illustrates the plasma concentration pharmacokinetic parameters of Compound having Formula (I) (N-(4,6-Bis-n-propylamino-[1,3,5]triazin-2-yl)-O,N-dimethyl-hydroxylamine).
The plasma concentration descriptive statistics of the compound having Formula (I) (N-(4,6-Bis-n-propyl amino-[1,3,5]triazin-2-yl)-O,N-dimethyl-hydroxyl amine) are presented in Table 28.
The T1/2 values were 3.0 hours for IV Group 1 and 3.2 hours and 2.7 hours for IM Groups 2 and 3, respectively.
For each dose level, Cmax was higher for IV dosing than for IM dosing whereas AUClast was higher for IM dosing than for IV dosing.
The IV and IM bioavailability of a Compound having Formula (I) (N-(4,6-Bis-n-propylamino-[1,3,5]triazin-2-yl)-O,N-dimethyl-hydroxylamine) is presented in Table 30.
The IV formulation single injection yielded higher Cmax and shorter time to Cmax(Tmax). […] From the present pharmacokinetic study, it is believed that IM Formulation 1 is a simple formulation with high solubility and shorter Tmax, while IM Formulation 2 has higher absorption in both rats and minipig.

[4] = iv, 4.8 mg/kg, Mean plasma concentration

Q: With `CCCNc1nc(NCCC)nc(N(C)OC)n1` [active agent, N-(4,6-Bis-n-propylamino-[1,3,5]triazin-2-yl)-O,N-dimethyl-hydroxylamine] as the compound, how does the “drug substance stability (in words)” value ([1]; 4 weeks even at 60° C.) read?
A: quite stable

Q: What about the Appearance ([1]; 40° C., T = 1 week) of the same compound?
A: White

Q: What about the Purity ([1]; 40° C., T = 1 week) of the same compound?
A: 99.92%

Q: And the “Related Substances (Total)” value ([1]; 40° C., T = 1 week)?
A: Total 0.08

Q: And the Appearance ([1]; 40° C., T = 2 week)?
A: White

Q: What about the Purity ([1]; 40° C., T = 2 week) of the same compound?
A: 99.90%

Q: And the “Related Substances (Total)” value ([1]; 40° C., T = 2 week)?
A: Total 0.10

Q: And the Appearance ([1]; 40° C., T = 4 week)?
A: White

Q: And the Purity ([1]; 40° C., T = 4 week)?
A: 100.00%

Q: What about the Appearance ([1]; 60° C., T = 1 week) of the same compound?
A: powder

Q: What about the Purity ([1]; 60° C., T = 1 week) of the same compound?
A: 99.76%

Q: And the “Related Substances (Total)” value ([1]; 60° C., T = 1 week)?
A: Total 0.24

Q: What about the Appearance ([1]; 60° C., T = 2 week) of the same compound?
A: powder

Q: And the Purity ([1]; 60° C., T = 2 week)?
A: 100.00%

Q: And the Appearance ([1]; 60° C., T = 4 week)?
A: powder

Q: What about the Purity ([1]; 60° C., T = 4 week) of the same compound?
A: 100.00%

Q: And the Appearance ([1]; T = 0)?
A: White

Q: And the Purity ([1]; T = 0)?
A: 100.00%

Q: And the pKa [2]?
A: 5.6

Q: What about the “theoretical free base solubility” value [2] of the same compound?
A: about 0.18 mg/mL

Q: And the bioavailability [3]?
A: 117.2%

Q: And the bioavailability ([3]; Bioavailability)?
A: 113%

Q: And the AUClast ([3]; im, 4.8 mg/kg)?
A: 2711 ng·h/mL

Q: And the T1/2 ([3]; im, 4.8 mg/kg)?
A: 2.7 h

Q: And the AUC(0-inf) ([3]; im, 4.8 mg/kg)?
A: 2720 ng·h/mL

Q: And the AUC(0-t) ([3]; im, 4.8 mg/kg)?
A: 2620 ng·h/mL

Q: What about the Cmax ([3]; im, 4.8 mg/kg) of the same compound?
A: 466 ng/mL

Q: What about the half-life ([3]; im, 4.8 mg/kg) of the same compound?
A: 3.2 h

Q: And the Tmax ([3]; im, 4.8 mg/kg)?
A: 0.5 h

Q: What about the AUC(0-inf) ([3]; iv, 4.8 mg/kg) of the same compound?
A: 2320 ng·h/mL

Q: What about the AUC(0-t) ([3]; iv, 4.8 mg/kg) of the same compound?
A: 2310 ng·h/mL

Q: What about the bioavailability ([3]; iv, 4.8 mg/kg, Bioavailability) of the same compound?
A: 100%

Q: What about the Cmax ([3]; iv, 4.8 mg/kg) of the same compound?
A: 2820 ng/mL

Q: And the concentration at 0.083 hr [3, 4]?
A: 2820 ng/mL

Q: And the concentration at 0.167 hr [3, 4]?
A: 2010 ng/mL

Q: What about the concentration at 0.25 hr [3, 4] of the same compound?
A: 1500 ng/mL

Q: And the concentration at 0.5 hr [3, 4]?
A: 1020 ng/mL

Q: And the concentration at 1 hr [3, 4]?
A: 519 ng/mL

Q: And the concentration at 2 hr [3, 4]?
A: 186 ng/mL

Q: What about the concentration at 4 hr [3, 4] of the same compound?
A: 40 ng/mL

Q: And the concentration at 24 hr [3, 4]?
A: 0.8 ng/mL

Q: What about the half-life ([3]; iv, 4.8 mg/kg) of the same compound?
A: 3 h

Q: What about the Tmax ([3]; iv, 4.8 mg/kg) of the same compound?
A: 0.083 h
